# Measurements as given in publication PMC10200060, “Inhibition of DAMP actions in the tumoral microenvironment using lactoferrin-glycyrrhizin conjugate for glioblastoma therapy” (Biomaterials Research, 2023).
# How the values were obtained:
# [1] = test system: orthotopic GBM (U87MG) mice model; experiment: Nissl staining: GBM/normal brain ratio; assay type: in vivo, Balb/c nude mice; conditions: daily i.v. GL equivalent 50 mg kg^−1, 14 days (control 37.5 ± 2.3)
# Excerpt: (§1) After two weeks, mice were sacrificed, and the brains were harvested and fixed with paraformaldehyde (4%). Then, tissue processing was automatically conducted using a Leica TP1020 semi-enclosed Benchtop Tissue Processor (Leica Biosystems, Wetzlar, Hesse, Germany), followed by embedding in paraffin blocks. Paraffin blocks were sliced into 5 μm thick slices using a Leica RM2145 Microtome (Leica Biosystems). Nissl staining was used to stain brain tissue slides with pre-warmed 0.1% Cresyl Violet Stain Solution (Abcam). TUNEL assays were conducted following the manufacturer’s instructions. For immunofluorescence staining; anti-HMGB1 antibody (Abcam), anti-Ki67 antibody (Abcam), anti-CD31 antibody (Abcam), and anti-VEGF antibody (Abcam) were used as primary antibodies, and goat anti-rabbit IgG-H&L Alexa Fluor 488 and goat anti-rabbit IgG H&L Alexa Fluor 647 were used as secondary antibodies, followed by DAPI mounting.
# CD31 = experiment: Immunofluorescence staining of CD31 in GBM tissue; assay type: in vivo, Balb/c nude mice; conditions: GBM mice, daily i.v., 14 days (control MFI 14.7 ± 1.4)
# Excerpt: as §1
# HMGB1 [2] = experiment: HMGB1 ELISA of U87MG culture medium; assay type: cell-based, human; conditions: 50 μM GL equivalent, 48 h (control 131.8 ± 11.4)
# Protocol: U87MG cells were seeded in 100 mm-cell culture dishes (2.2 × 10^6 cells per dish) and treated with GL, Lf, or Lf-GL (50 × 10^–6 M GL equivalent concentration) for 48 h. After incubating, cells were collected using a cell scrapper and were centrifuged for 3 min at 150 × g. Supernatant was collected as cell culture medium, and pellets were washed with cold PBS twice and transferred into a microcentrifuge tube. Tubes were centrifuged, and then pellets were resuspended in 500 μL 1X hypotonic buffer and incubated on ice. Then, 25 μL of NP40 was added and the mixture was agitated using a vortex mixer at the highest setting. Homogenates were centrifuged for 10 min at 842 × g at 4℃. Supernatant was collected as the cytoplasmic fraction, and pellets were resuspended in cell extraction buffer (50 μL) and were incubated for 30 min on ice with vortexing at 10 min intervals. Then, homogenates were centrifuged for 30 min at 14,000 × g at 4℃. Supernatant was collected as the nuclear fraction. The amount of HMGB1 in the samples was measured using a HMGB1 ELISA kit (Abbkine), and absorbance was measured at 450 nm in a micro-plate reader. A DNA assay (Quant-iT™ dsDNA Assay Kit, Invitrogen) was also conducted to express HMGB1 concentrations in equivalent amounts of DNA.
# [3] = test system: orthotopic GBM (U87MG) mice model; experiment: Survival in orthotopic GBM mouse model; assay type: in vivo, Balb/c nude mice; conditions: i.v. GL equivalent 50 mg kg^−1 (Lf 5 mg kg^−1), 28 days
# Protocol: To establish the orthotopic GBM mice model, GBM cells (U87MG, inoculation density: 1.0 × 10^6 cells per 10 μL) were stereotactically injected into the right striatum of Balb/c nude mice. Then, mice were randomly divided into four groups (n = 5): control, GL, Lf, and Lf-GL treated group. […] After four weeks, mice were sacrificed, and organs were harvested and fixed with 4% paraformaldehyde for further analysis.
# HMGB1 [4] = experiment: Immunofluorescence staining of HMGB1 in GBM tissue; assay type: in vivo, Balb/c nude mice; conditions: GBM mice, daily i.v. GL equivalent 50 mg kg^−1, 14 days (control 15.3 ± 1.7)
# Excerpt: as §1
# [5] = test system: orthotopic GBM (U87MG) mice model; experiment: TUNEL assay of GBM tissue; assay type: in vivo, Balb/c nude mice; conditions: daily i.v., 14 days (control 28.5 ± 4.8)
# Excerpt: as §1
# HMGB1 [6] = experiment: HUVEC co-cultured with U87MG: HMGB1 ELISA; assay type: cell-based, human; conditions: HUVEC/U87MG co-culture, 100 μM GL equivalent, 24 h (control 217.8 ± 5.9)
# Protocol: To evaluate the inhibitory effect of Lf-GL on neovascularization in the tumor microenvironment in vitro, U87MG cells were seeded in the Transwell® insert chambers that were 6.5 mm in diameter and had 0.4 μm pore sizes (seeding density: 2.5 × 10^4 cells per well, Corning). HUVECs were seeded in the Transwell basal chamber (seeding density: 5.0 × 10^4 cells per well). GL, Lf, or Lf-GL (100 × 10^–6 M of GL equivalent concentration) were added to the insert chamber, and cells were incubated for 24 h. CCK-8 assay and HMGB1 ELISA were conducted at the basal chamber.
# [7] = biological target: T1, human recombinant HMGB1 protein (Homo sapiens, UniProt P09429); experiment: SPR binding affinity against HMGB1; conditions: SPR, HMGB1 immobilized
# T1 construct: purchased Abcam
# T1 sequence (P09429 1-215): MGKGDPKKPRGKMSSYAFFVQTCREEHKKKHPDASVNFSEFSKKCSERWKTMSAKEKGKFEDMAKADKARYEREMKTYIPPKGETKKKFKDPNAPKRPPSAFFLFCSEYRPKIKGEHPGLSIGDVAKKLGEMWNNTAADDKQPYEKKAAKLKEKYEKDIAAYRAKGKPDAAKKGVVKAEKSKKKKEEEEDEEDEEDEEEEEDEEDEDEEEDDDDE
# Protocol: To confirm the binding affinity of Lf-GL to HMGB1, Surface Plasmon Resonance (SPR) was conducted at WoojungBSC (Korea). The Reichert SR7500DC system (Reichert technologies, NA, USA) and Scrubber2 software (Biologic software, FRA) were used, and a CMDH chip (Cat #: 13,206,066, Reichert technologies) was used for immobilization of the human recombinant HMGB1 protein (Abcam). HMGB1 protein was used as a ligand, and the analytes were HMGB1 antibody (Abcam), GL, Lf and Lf-GL conjugate. The immobilization buffer was S.A. (10 × 10^–3 M, pH 4.5), and the running buffer was PBS (pH 7.4). The flow rate of the analyte was 30 μL min^−1. The association and dissociation time were 3 min each, and measurements were conducted at room temperature. Results are expressed in response units (RU) over time.
# Fig. S5. Binding affinity against HMGB1. Surface Plasmon Resonance (SPR) was conducted at WoojungBSC (Korea). The Reichert SR7500DC system (Reichert technologies, NA, USA) and Scrubber2 software(Biologic software, FRA) were used and the CMDH chip (Cat #: 13206066, Reichert technologies) was used for immobilization of the human recombinant HMGB1 protein (Abcam). HMGB1 protein was used as ligand and analytes were HMGB1 antibody (Abcam), GL, Lf and Lf-GL conjugate. Immobilization buffer was 10 mM S.A. (pH 4.5) and running buffer was 1× PBS. The flow rate of the analyte was 30 μL min^-1. The association and dissociation time were 3 min each and conducted at room temperature. Results are expressed in response units (RU) over time.
smiles,measurement,setting,value
"CC1(C)[C@@H](O[C@H]2O[C@H](C(=O)O)[C@@H](O)[C@H](O)[C@H]2O[C@@H]2O[C@H](C(=O)O)[C@@H](O)[C@H](O)[C@H]2O)CC[C@]2(C)[C@H]3C(=O)C=C4[C@@H]5C[C@@](C)(C(=O)O)CC[C@]5(C)CC[C@@]4(C)[C@]3(C)CC[C@@H]12 [GL, Glycyrrhizin]",GBM/normal brain ratio,[1],26.4 ± 5.7
same,Decrease of MFI of CD31,CD31,approximately 4 fold
same,HMGB1 released into the medium of U87MG cells,HMGB1 [2],80.7 ± 4.5 ng/mL
same,Additional days of survival versus PBS control,[3],4 days
same,Mean fluorescence intensity (MFI) of HMGB1,HMGB1 [4],6.2 ± 0.8
same,TUNEL MFI,[5],16.3 ± 2.8
same,HMGB1 level in medium,HMGB1 [6],190.7 ± 19.0 ng/mL
same,"Kd, dissociation rate constant","[7]; PBS pH 7.4, room temperature",0.00283 ± 3e-05 s⁻¹
same,kon,"[7]; PBS pH 7.4, room temperature, read-out: Ka, association rate constant",5.3 ± 0.1 M⁻¹ s⁻¹
same,Kd,"[7]; read-out: KD, equilibrium dissociation constant (KD = Kd Ka^−1)",540 ± 20 µM
